Laboratory results as given in patent publication US20110166123A1, “NOVEL COMPOSITIONS AND METHODS OF USE” (priority 2008, published 2011).
Read-outs that look alike come from different tables or passages of the source.

Tested on: human immunodeficiency virus type 1 (HIV-1)
Assay: microbe, parasite or virus in culture
Assay type: cell-based
[1] = Human immunodeficiency virus 1, HeLa, 48 h, HIV-1 luciferase reporter, HeLa cells, 48 hours after infection

| Compound | EC50 [1] | EC50 (Human immunodeficiency virus 1, HeLa, HIV-1 luciferase reporter, HeLa cells) | EC50 (Human immunodeficiency virus 1, read-out: Rank, rank of EC50, HIV-1 luciferase reporter) |
| --- | --- | --- | --- |
| CC(C)(C)[C@@H](CO)n1cc(C(=O)O)c(=O)c2cc(Cc3cccc(Cl)c3F)c(OCc3cccnc3)nc21 [Example 2N] | < 0.01 µM |  |  |
| COc1nc2c(cc1CCc1ccc(F)cc1F)c(=O)c(C(=O)O)cn2[C@H](CO)C(C)C [Example 19, (S)-6-(2,4-difluorophenethyl)-1-(1-hydroxy-3-methylbutan-2-yl)-7-methoxy-4-oxo-1,4-dihydro-1,8-naphthyridine-3-carboxylic acid] | > 0.1 µM |  |  |
| COc1nc2c(cc1-c1cccc3ccccc13)c(=O)c(C(=O)O)cn2[C@H](CO)C(C)C [Example 17I] | > 0.1 µM |  |  |
| COc1nc2c(cc1Cc1c(F)cc(F)cc1F)c(=O)c(C(=O)O)cn2[C@H](CO)C(C)C [Example 1D] | > 0.1 µM |  |  |
| COc1nc2c(cc1COc1ccc(F)cc1F)c(=O)c(C(=O)O)cn2[C@H](CO)C(C)C [Example 14B] | > 0.1 µM | > 2.5 µM | > 0.1 µM |
| COc1nc2c(cc1NCc1cccc(Cl)c1F)c(=O)c(C(=O)O)cn2[C@H](CO)C(C)C [Example 20B, (S)-6-(3-chloro-2-fluorobenzylamino)-1-(1-hydroxy-3-methylbutan-2-yl)-7-methoxy-4-oxo-1,4-dihydro-1,8-naphthyridine-3-carboxylic acid] | > 0.1 µM |  |  |
| COc1nc2c(cc1CNc1ccc(F)cc1F)c(=O)c(C(=O)O)cn2[C@H](CO)C(C)C [Example 12B] | > 0.1 µM |  |  |
| COc1cc2c(cc1OCc1c(F)cc(F)cc1F)c(=O)c(C(=O)O)cn2[C@H](CO)C(C)(C)C [Example 29B, (S)-1-(1-hydroxy-3,3-dimethylbutan-2-yl)-7-methoxy-4-oxo-6-(2,4,6-trifluorobenzyloxy)-1,4-dihydroquinoline-3-carboxylic acid] | 0.01 to 0.1 µM |  |  |
| CC(C)[C@@H](CO)n1cc(C(=O)O)c(=O)c2cc(NCc3ccc(F)cc3)ccc21 [Example 22A, (S)-6-(4-fluorobenzylamino)-1-(1-hydroxy-3-methylbutan-2-yl)-4-oxo-1,4-dihydroquinoline-3-carboxylic acid] | > 0.1 µM |  |  |
| CC[C@@H](CO)n1cc(C(=O)O)c(=O)c2cc(Cc3cccc(Cl)c3F)c(OC)nc21 [Example 1I] | 0.01 to 0.1 µM |  |  |
| COc1nc2c(cc1Cc1cccc(Cl)c1F)c(=O)c(C(=O)O)cn2[C@H](CO)C(C)(C)C [Example 1H] | < 0.01 µM |  |  |
| COc1nc2c(cc1Cc1ccc(F)cc1F)c(=O)c(C(=O)O)cn2[C@H](CO)C(C)C [Example 1E] | 0.01 to 0.1 µM |  |  |
| COc1nc2c(cc1NCc1ccc(F)c(F)c1)c(=O)c(C(=O)O)cn2[C@H](CO)C(C)C [Example 20N, (S)-6-(3,4-difluorobenzylamino)-1-(1-hydroxy-3-methylbutan-2-yl)-7-methoxy-4-oxo-1,4-dihydro-1,8-naphthyridine-3-carboxylic acid] | > 0.1 µM |  |  |
| COc1nc2c(cc1Cc1cccc(Cl)c1F)c(=O)c(C(=O)O)cn2C[C@H](O)c1ccccc1 [Example 1Q] | > 0.1 µM |  |  |
| COc1nc2c(cc1NCc1cc(F)ccc1F)c(=O)c(C(=O)O)cn2[C@H](CO)C(C)C [Example 20CC, (S)-6-(2,5-difluorobenzylamino)-1-(1-hydroxy-3-methylbutan-2-yl)-7-methoxy-4-oxo-1,4-dihydro-1,8-naphthyridine-3-carboxylic acid] | > 0.1 µM |  |  |
| CC(C)[C@@H](CO)n1cc(C(=O)O)c(=O)c2cc(NCc3ccc(F)cc3)c(N3CCOCC3)nc21 [Example 24A, (S)-6-(4-fluorobenzylamino)-1-(1-hydroxy-3-methylbutan-2-yl)-7-morpholino-4-oxo-1,4-dihydro-1,8-naphthyridine-3-carboxylic acid] | > 0.1 µM |  |  |

| Compound | EC50 [1] | EC50 (Human immunodeficiency virus 1, HeLa, HIV-1 luciferase reporter, HeLa cells) | EC50 (Human immunodeficiency virus 1, read-out: Rank, rank of EC50, HIV-1 luciferase reporter) |
| --- | --- | --- | --- |
| COc1nc2c(cc1NCc1ccccc1Cl)c(=O)c(C(=O)O)cn2[C@H](CO)C(C)C [Example 20M, (S)-6-(2-chlorobenzylamino)-1-(1-hydroxy-3-methylbutan-2-yl)-7-methoxy-4-oxo-1,4-dihydro-1,8-naphthyridine-3-carboxylic acid] | > 0.1 µM |  |  |
| CC(C)[C@@H](CO)n1cc(C(=O)O)c(=O)c2cc(Cc3cccc(Cl)c3)ncc21 [Example 5C, 6-(3-Chloro-benzyl)-1-((S)-1-hydroxymethyl-2-methyl-propyl)-4-oxo-1,4-dihydro-[1,7]naphthyridine-3-carboxylic acid] | > 0.1 µM |  |  |
| CC(C)(C)[C@@H](CO)n1cc(C(=O)O)c(=O)c2cc(NCc3ccc(F)cc3)c(F)cc21 [Example 26A, (S)-7-fluoro-6-(4-fluorobenzylamino)-1-(1-hydroxy-3,3-dimethylbutan-2-yl)-4-oxo-1,4-dihydroquinoline-3-carboxylic acid] | 0.01 to 0.1 µM |  |  |
| CC(C)[C@@H](CO)n1cc(C(=O)O)c(=O)c2cc(Cc3ccc(Cl)c(Cl)c3)ncc21 [Example 5Q] | 0.01 to 0.1 µM |  |  |
| COCCCCOc1nc2c(cc1Cc1cccc(Cl)c1F)c(=O)c(C(=O)O)cn2[C@H](CO)C(C)(C)C [Example 2J] | 0.01 to 0.1 µM |  |  |
| CC(C)(C)[C@@H](CO)n1cc(C(=O)O)c(=O)c2cc(NCc3ccc(F)cc3)c(Cl)cc21 [Example 26E, (S)-7-chloro-6-(4-fluorobenzylamino)-1-(1-hydroxy-3,3-dimethylbutan-2-yl)-4-oxo-1,4-dihydroquinoline-3-carboxylic acid] | > 0.1 µM |  |  |
| CCC(C)[C@@H](CO)n1cc(C(=O)O)c(=O)c2cc(Cc3cccc(Cl)c3F)c(OC)nc21 (stereo partly drawn) [Example 1G] | < 0.01 µM |  |  |
| CC(C)(C)[C@@H](CO)n1cc(C(=O)O)c(=O)c2cc(OCc3c(F)cc(F)cc3F)ccc21 [Example 23C, (S)-1-(1-hydroxy-3,3-dimethylbutan-2-yl)-4-oxo-6-(2,4,6-trifluorobenzyloxy)-1,4-dihydroquinoline-3-carboxylic acid] | 0.01 to 0.1 µM |  |  |
| CC(C)[C@@H](CO)n1cc(C(=O)O)c(=O)c2nc(Cc3cccc(Cl)c3)ccc21 [Example 8C, 6-(3-Chloro-benzyl)-1-((S)-1-hydroxymethyl-2-methyl-propyl)-4-oxo-1,4-dihydro-[1,5]naphthyridine-3-carboxylic acid] | > 0.1 µM |  |  |
| COc1nc2c(cc1-c1ccccc1OCc1ccccc1)c(=O)c(C(=O)O)cn2[C@H](CO)C(C)C [Example 17K] | > 0.1 µM |  |  |
| COc1nc2c(cc1NCCc1ccccc1F)c(=O)c(C(=O)O)cn2[C@H](CO)C(C)C [Example 20S, (S)-6-(2-fluorophenethylamino)-1-(1-hydroxy-3-methylbutan-2-yl)-7-methoxy-4-oxo-1,4-dihydro-1,8-naphthyridine-3-carboxylic acid] | > 0.1 µM |  |  |
| COc1cc2c(cc1OCc1ccccc1C(F)(F)F)c(=O)c(C(=O)O)cn2[C@H](CO)C(C)(C)C [Example 29C, (S)-1-(1-hydroxy-3,3-dimethylbutan-2-yl)-7-methoxy-4-oxo-6-(2-(trifluoromethyl)benzyloxy)-1,4-dihydroquinoline-3-carboxylic acid] | > 0.1 µM |  |  |
| COc1cc2c(nc1Cc1cccc(Cl)c1F)c(=O)c(C(=O)O)cn2[C@H](CO)C(C)C [Example 8D, 6-(3-Chloro-2-fluoro-benzyl)-1-((S)-1-hydroxymethyl-2-methyl-propyl)-7-methoxy-4-oxo-1,4-dihydro-[1.5]naphthyridine-3-carboxylic acid] | > 0.1 µM |  |  |
| CCCC(CO)n1cc(C(=O)O)c(=O)c2cc(Cc3cccc(Cl)c3F)c(OC)nc21 (stereo not drawn) [Example 1J] | 0.01 to 0.1 µM |  |  |
| COc1nc2c(cc1CNCc1c(F)cc(F)cc1F)c(=O)c(C(=O)O)cn2[C@H](CO)C(C)C [Example 12G] | > 0.1 µM |  |  |
